In article PMC7321382, “Synthesis and Antibacterial Analysis of Analogues of the Marine Alkaloid Pseudoceratidine” (Molecules, 2020):
≈ marks a conversion by molar mass, not a printed value.

Tests used:
[1] = system: HEK293 human embryonic kidney cells; test: Cytotoxicity, sulforhodamine B cell proliferation assay; type: cell-based; details: for relative growth of HEK293 cells (% of untreated control) at 16 µM: Homo sapiens, 72 h, 16 µM compound, 3 days, relative to control with no treatment, mean ± SD of triplicates; for cytotoxic activity (in words): HEK293, at concentrations 2–4 times the MIC (16 µM)
Method: As described previously, cell proliferation was measured by sulforhodamine B colorimetric assay in which 2000 HEK293 human embryonic kidney cells were seeded in 96-well plates in the presence of varying concentrations of drugs. The sulforhodamine B colorimetric assay, which is based on the measurement of cellular protein content, was used to measure cell density. After drug treatment for 3 days, cells were fixed with 10% (w/v) trichloroacetic acid and stained with 0.057% (w/v) sulforhodamine B for 30 min, and the excess dye was removed by washing repeatedly with 1% (v/v) acetic acid. The protein-bound dye was dissolved in Tris base solution (10 mM) for optical density determination at 510 nm using a microplate reader. All experiments were done in triplicate, and were repeated at least twice. The optimal cell densities were previously determined to select initial cell densities that ensured that the cells were in the logarithmic phase for the experiments.

E. coli DH5α = test: Antibacterial MIC, broth microdilution, E. coli; type: cell-based, Escherichia coli; details: for MIC: Escherichia coli, Gram-negative, 24 h incubation, highest concentration tested 128 µM, † lower starting concentration due to insolubility
Method: (§1) The MIC was determined using the broth microdilution method. Mueller Hinton (MH) broth base was prepared in milli-Q water, then autoclaved at 120 °C for 1 h before allowing it to cool to room temperature. A single colony of each bacterial strain (E. coli DH5α and S. aureus 16207) was inoculated in MHB and incubated at 37 °C overnight. Overnight cultures were adjusted to 10^6 CFU/mL in MHB according to the McFarland Standard,100 μL of which was further diluted to a total of 10 mL in the media. The stock solutions of the compounds were prepared at 12.8 mM in purified DMSO. The stock solutions were further diluted in milli-Q water to 64 μM in 0.5% DMSO for testing against S. aureus, and 256 μM in 2% DMSO for testing against E. coli. Compounds that were not soluble in these solvent mixtures were further diluted in half to get clear solutions for the bioassay. DMSO is known to have weak antibacterial activity. To exclude the antibacterial effect of DMSO from the results, a solution of 2% DMSO in milli-Q water was used as an additional control in the experiments. The compounds and three controls (the natural product pseudoceratidine 1 for both strains, streptomycin for S. aureus, and polymyxin B for E. coli) then underwent a dilution series. The assay was performed by adding 50 μL of each compound solution at the different concentrations and 50 μL of the diluted bacterial culture to the different wells of a 96-well microtiter plate. The experiments were performed at least thrice and in triplicates. MIC after 24 h of incubation was determined by both visual inspection and absorbance at 600 nm using an EnSpire Multimode plate reader.

S. aureus 16207 = test: Antibacterial MIC, broth microdilution, S. aureus; type: cell-based, Staphylococcus aureus; details: Gram-positive, 24 h incubation, highest concentration tested 32 µM; for MIC: Staphylococcus aureus, 16207
Method: as §1

HepG2 liver cell line = system: HepG2 liver cell line; set-up: method as in PMID 29297684; details: compared with HEK293 result; cited from earlier work
Staphylococcus aureus = system: Staphylococcus aureus; set-up: method as in doi:10.1016/S0960-894X(96)00622-1, doi:10.1016/S0040-4020(98)00340-8, doi:10.1016/0040-4039(96)01310-X; details: Gram-positive; cited from earlier work
Pseudomonas aeruginosa = system: Pseudomonas aeruginosa; set-up: method as in doi:10.1016/S0960-894X(96)00622-1, doi:10.1016/S0040-4020(98)00340-8, doi:10.1016/0040-4039(96)01310-X; details: Gram-negative; cited from earlier work
Listeria monocytogenes = system: Listeria monocytogenes; set-up: method as in doi:10.1016/S0960-894X(96)00622-1, doi:10.1016/S0040-4020(98)00340-8, doi:10.1016/0040-4039(96)01310-X; details: Gram-positive; cited from earlier work
Escherichia coli = system: Escherichia coli; set-up: method as in doi:10.1016/S0960-894X(96)00622-1, doi:10.1016/S0040-4020(98)00340-8, doi:10.1016/0040-4039(96)01310-X; details: Gram-negative; cited from earlier work
Balanus amphitrite = system: Balanus amphitrite; set-up: method as in doi:10.1016/0040-4039(96)00025-1; details: marine larval organism Balanus amphitrite; cited from earlier work
Plasmodium falciparum = system: Plasmodium falciparum; set-up: method as in PMID 29297684; details: anti-malarial; cited from earlier work
Candida albicans = system: Candida albicans; set-up: method as in doi:10.1016/S0960-894X(96)00622-1, doi:10.1016/S0040-4020(98)00340-8, doi:10.1016/0040-4039(96)01310-X; details: anti-fungal; cited from earlier work

Row | Structure (SMILES) | relative growth of HEK293 cells (% of untreated control) at 16 µM [1] | melting point | MIC (E. coli DH5α) | MIC S. Aureus (S. aureus 16207) | MIC (S. aureus 16207) | other results
1 | O=C(NCCCNCCCNC(=O)c1cc(Cl)c(Cl)[nH]1)c1cc(Cl)c(Cl)[nH]1 [Compound 14c] | 0.5 ± 0.3% | 189 to 190 °C | 64 to 128 µM (≈ 29.1 to 58.3 µg/mL) | 8 to 16 µM | 8 to 16 µM (≈ 3.64 to 7.28 µg/mL) | 
2 | O=C(NCCCCCCNCCCCCCNC(=O)c1cc(Cl)c(Cl)[nH]1)c1cc(Cl)c(Cl)[nH]1 [Compound 15c] | 1.8 ± 2% | 189 to 190 °C | 32 to 64 µM (≈ 17.3 to 34.5 µg/mL) | 4 to 8 µM | 4 to 8 µM (≈ 2.16 to 4.31 µg/mL) | 
3 | O=C(NCCCNCCNC(=O)c1cc(Cl)c(Cl)[nH]1)c1cc(Cl)c(Cl)[nH]1 [Compound 16c] | 2.5 ± 1.8% | 133 to 135 °C | 32 to 64 µM (≈ 14.1 to 28.2 µg/mL) | 16 to 32 µM | 16 to 32 µM (≈ 7.06 to 14.1 µg/mL) | activity against Gram-negative bacteria compared with 1 (in words) (E. coli DH5α): equivalents activity to 1
4 | O=C(NCCCNCCCCNCCCNC(=O)c1cc(Br)c(Br)[nH]1)c1cc(Br)c(Br)[nH]1 [Compound 19e] | 94.5 ± 5.9% |  | 32 to 64 µM (≈ 22.5 to 45.1 µg/mL) | 2 to 4 µM | 2 to 4 µM (≈ 1.41 to 2.82 µg/mL) | cytotoxic activity (in words) [1]: almost no cytotoxic activity; cytotoxicity versus HepG2 (in words) (HepG2 liver cell line): far less toxic
5 | O=C(NCCCNCCNC(=O)c1cc(Br)c(Br)[nH]1)c1cc(Br)c(Br)[nH]1 [Compound 16e] | 2.6 ± 2% | 206 to 208 °C | 64 to 128 µM (≈ 39.6 to 79.2 µg/mL) | 8 to 16 µM | 8 to 16 µM (≈ 4.95 to 9.9 µg/mL) | 
6 | O=C(NCCCNCCCNCCCNC(=O)c1cc(Cl)c(Cl)[nH]1)c1cc(Cl)c(Cl)[nH]1 [Compound 18c] | 98 ± 4.5% | 109 to 111 °C | 32 to 64 µM (≈ 16.4 to 32.8 µg/mL) | 4 to 8 µM | 4 to 8 µM (≈ 2.05 to 4.1 µg/mL) | cytotoxic activity (in words) [1]: almost no cytotoxic activity
7 | O=C(NCCCCNCCCNC(=O)c1cc(Br)c(Br)[nH]1)c1cc(Br)c(Br)[nH]1 [Pseudoceratine 1, pseudoceratidine] | 0.7 ± 0.8% |  | 32 to 64 µM (≈ 20.7 to 41.4 µg/mL) | 8 to 16 µM | 8 to 16 µM (≈ 5.18 to 10.4 µg/mL) | MIC Staphylococcus aureus (Staphylococcus aureus): 4 µg/mL (≈ 6.18 µM); MIC Pseudomonas aeruginosa (Pseudomonas aeruginosa): 128 µg/mL (≈ 198 µM); MIC Listeria monocytogenes (Listeria monocytogenes): 5 µg/mL (≈ 7.73 µM); MIC Escherichia coli (Escherichia coli): 32 µg/mL (≈ 49.5 µM); EC50 antifouling (Balanus amphitrite): 8 µg/mL (≈ 12.4 µM); EC50 (Plasmodium falciparum): 1000 nM; MIC Candida albicans (Candida albicans): 32 µg/mL (≈ 49.5 µM)
8 | O=C(NCCCNCCCNC(=O)c1cc(Br)c(Br)[nH]1)c1cc(Br)c(Br)[nH]1 [Compound 14e] | 1.1 ± 0.9% | 135 to 137 °C | 32 to 64 µM (≈ 20.3 to 40.5 µg/mL) | 8 to 16 µM | 8 to 16 µM (≈ 5.06 to 10.1 µg/mL) | 
9 | O=C(NCCCNCCCCNCCCNC(=O)c1cc(I)c[nH]1)c1cc(I)c[nH]1 [Compound 19f] |  | 173 to 175 °C | > 128 µM |  | 16 to 32 µM (≈ 10.2 to 20.5 µg/mL) | 
10 | O=C(NCCCNCCCNCCCNC(=O)c1cc(Br)c(Br)[nH]1)c1cc(Br)c(Br)[nH]1 [Compound 18e] | 2.1 ± 1.5% |  | 32 to 64 µM (≈ 22.1 to 44.2 µg/mL) | 2 to 4 µM | 2 to 4 µM (≈ 1.38 to 2.76 µg/mL) | 
11 | O=C(NCCCCNC(=O)c1ccc[nH]1)c1ccc[nH]1 [Compound 12a] |  | 215 to 216 °C | > 128 µM |  | > 32 µM | 
12 | O=C(NCCCNCCCNC(=O)c1ccc[nH]1)c1ccc[nH]1 [Compound 14a] |  | 165 to 166 °C | > 128 µM |  | > 32 µM | 
13 | O=C(NCCCNCCNC(=O)c1ccc[nH]1)c1ccc[nH]1 [Compound 16a] |  | 69 to 71 °C | > 128 µM |  | > 32 µM | 
14 | O=C(NCCCNCCCCNCCCNC(=O)c1cc(Cl)c(Cl)[nH]1)c1cc(Cl)c(Cl)[nH]1 [Compound 19c] | 1.6 ± 2% | 110 to 112 °C | 128 to 256 µM (≈ 67.4 to 135 µg/mL) | 4 to 8 µM | 4 to 8 µM (≈ 2.11 to 4.21 µg/mL) | 
15 | O=C(NCCCCCCNCCCCCCNC(=O)c1cc(Br)c[nH]1)c1cc(Br)c[nH]1 [Compound 15d] |  | 178 to 180 °C | > 64 µM |  | > 32 µM | 
16 | O=C(NCCCCCCNCCCCCCNC(=O)c1ccc[nH]1)c1ccc[nH]1 [Compound 15a] |  | 129 to 131 °C | > 128 µM |  | > 32 µM | 
17 | CC(C)(C)OC(=O)NCCCNC(=O)c1cc(I)c[nH]1 [Compound 28f] |  | 128 to 130 °C | > 128 µM |  | > 32 µM | 
18 | O=C(NCCCCCCNCCCCCCNC(=O)c1cc(I)c[nH]1)c1cc(I)c[nH]1 [Compound 15f] |  | 174 to 176 °C | > 64 µM |  | > 32 µM | 
19 | O=C(NCCCCCCNCCCCCCNC(=O)c1cc(Br)c(Br)[nH]1)c1cc(Br)c(Br)[nH]1 [Compound 15e] | 1.3 ± 0.8% |  | 16 to 32 µM (≈ 11.5 to 22.9 µg/mL) | 4 to 8 µM | 4 to 8 µM (≈ 2.87 to 5.74 µg/mL) | 
20 | O=C(NCCNCCNC(=O)c1cc(Br)c(Br)[nH]1)c1cc(Br)c(Br)[nH]1 [Compound 13e] |  | > 230 °C | > 64 µM |  | > 32 µM | 
